According to patent US20060008891A1, “Cathepsin G-related peptides as modulators of formylpeptide receptors (FPR)” (The Government of USA as repersented by the Secretary, …, priority 2004, published 2006):
Entries after “also recorded” stand apart in the source; their conditions may differ.

Experiments:
Akt = experiment: Phosphorylation of Akt in ETFR cells (Western blot); type: cell-based, rat
Experimental: (§1) ETFR cells were plated in Petri dishes and cultured in DMEM at 37° C. in humidified 5% CO2 atmosphere for 48 h. After further culture in serum-free DMEM overnight, the cells were treated with stimulants for indicated time periods. The reaction was stopped by adding 1 ml ice-cold PBS, and the cells were lysed in 1×SDS lysis buffer (62.5 mM Tris-HCl, 2% w/v SDS, 10% glycerol, 50 mM DTT, pH 6.8) and harvested into tubes for sonication. Proteins (50 μg for each sample) were resolved by SDS-PAGE and transferred onto nitrocellulose membranes (Bio-Rad, Hercules, Calif.). The membranes were blocked for 2 h at room temperature in 3% non-fat milk prepared in Tris-buffered saline-T (10 mM Tris-HCl, pH 7.5, 150 mM NaCl, 0.1% Tween 20) and probed with anti-p-ERK1/2, p-p38 MAPK, or p-Akt (1:1000) at room temperature for 1-2 h or at 4° C. overnight. The membranes were then washed and incubated with horseradish peroxidase-conjugated secondary antibodies diluted in Tris-buffered saline-T for 1 h at room temperature. The immune complexes on the membranes were visualized using ECL reagents. Total ERK1/2, p38 MAPK, and Akt were visualized by stripping the same membrane and probing with antibodies against total ERK1/2, p38 MAPK, and Akt.

ERK1/2 [1] = experiment: Phosphorylation of ERK1/2 in ETFR cells (Western blot); type: cell-based, rat
Experimental: as §1

FPR [2] = biological target: T1, FPR (Homo sapiens, UniProt P21462); experiment: 3[H]-fMLF binding competition on monocytes and ETFR cells; details: 3 nM 3[H]-fMLF
T1 construct: expressed in transfected cells; host or cells: Rat basophilic leukemia (RBL) cells, stably transfected (ETFR cells); gift of H. Ali and R. Snyderman, Duke University
T1 sequence (P21462 1-350): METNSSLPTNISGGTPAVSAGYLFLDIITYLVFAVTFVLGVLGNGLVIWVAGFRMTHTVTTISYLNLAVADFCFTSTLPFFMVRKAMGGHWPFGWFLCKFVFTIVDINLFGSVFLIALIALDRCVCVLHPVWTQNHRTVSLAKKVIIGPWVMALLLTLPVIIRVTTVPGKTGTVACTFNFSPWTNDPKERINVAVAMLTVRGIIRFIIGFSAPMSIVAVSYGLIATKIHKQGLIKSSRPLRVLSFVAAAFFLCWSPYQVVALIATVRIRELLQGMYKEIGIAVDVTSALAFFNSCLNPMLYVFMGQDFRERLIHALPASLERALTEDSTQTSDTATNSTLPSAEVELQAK
Source text: The cells were then filtered onto Whatman paper discs, which were air-dried and measured for […].

ERK1/2 [3] = experiment: Phosphorylation of ERK1/2 in parental RBL cells; type: cell-based, rat
FPR [4] = biological target: T1, FPR; experiment: Calcium flux (Fura-2), ETFR cells; type: cell-based; details: CaG 10 μg/ml
Experimental: (§2) Monocytes or ETFR cells (10^7 cells/ml in RPMI 1640 containing 10% FBS) were loaded with 5 μM Fura-2 at room temperature (30 min for monocytes, 60 min for ETFR cells) in the dark. The cells were washed and resuspended (0.5×10^6 cells/ml) in saline buffer (138 mM NaCl, 6 mM KCl, 1 mM CaCl2, 10 mM HEPES, 5 mM glucose, and 1% BSA, pH 7.4). Two milliliters of the cell suspension were transferred to a quartz cuvette, which was placed in a luminescence spectrometer LS55 (Perkin-Elmer, Beaconsfield, UK). Calcium mobilization was measured by recording the ratio of the fluorescence excited at 340 and 380 nm in response to stimulants.

parental RBL cells = experiment: Chemotaxis assay, parental RBL cells; type: cell-based, rat; details: parental RBL cells without FPR
Experimental: Human PBMC were isolated from leukopacks obtained through the courtesy of Transfusion Medicine Department, National Institutes of Health Clinical Center (Bethesda, Md.) by Ficoll-Hypaque density gradient centrifugation. Monocytes were purified from human PBMC by Percoll gradient to yield>90% pure preparations. […] H. Ali and R. Snyderman, Duke University (Durham, N.C.) and maintained in the presence of 0.8 mg/ml geneticin (G418, Life Technologies, Rockville, Md.) in DMEM supplemented with 10% FCS. B. Chemotaxis assay Migration of phagocytes and ETFR cells was assessed using a 48-well microchemotaxis chamber (Neuroprobe, Cabin John, Md.) as previously described (Hu et al. (2001) J Leukoc Biol 70 15512). Briefly, different concentrations of stimulants were placed in the wells of the lower compartment of the chamber, and 50 μl cells (1.5×10^6 cells/ml for monocyte and neutrophil, 1×10^6 ETFR cells/ml) were added to the wells of the upper compartment. The lower and upper compartments were separated by either a 5-μm (for monocyte) or a 10-μm pore size, collagen-coated (for ETFR cells) polycarbonate filter (Osmonics, Livermore, Calif.). After incubation at 37° C. in humidified air with 5% CO2 (60 min for neutrophils, 90 min for monocytes, 4.5 h for ETFR cells), the filter was removed and stained, and the cells migrating across the filter were counted with light microscopy. […]

FPR [5] = biological target: T1, FPR; experiment: 125I-CaG binding to ETFR cells; details: LIGAND program
Experimental: CaG was iodinated with a chrolamine-T method (Lofstrand Labs, Gaithersburg, Md.) with a specific activity of […] protein. Duplicate samples of ETFR cells or the parental RBL cells (2×10^6 cells in 200 μl RPMI 1640 containing 1% bovine serum albumin, 25 mM Hepes, and 0.05% NaN3) were incubated with 25 nM ^125I-CaG, in the presence of increasing concentrations of unlabeled ligands. After incubation and rotation at room temperature for 1 h, the cells were pelleted through a 10% sucrose/PBS cushion for 1 min at 10,000 g. The supernatant was removed and the radioactivity associated with cell pellets was measured in a γ counter (CliniGamma, Pharmacia Biotech Inc.). The binding data were analyzed with a Macintosh computer-aided program LIGAND (Dr. P. Munson, Division of Computer Research and Technology, NIH, Bethesda, Md.).

p38 MAPK = experiment: Phosphorylation of p38 MAPK in ETFR cells (Western blot); type: cell-based, rat
Experimental: as §1

monocytes = experiment: Calcium flux (Fura-2), monocytes; type: cell-based, human
Experimental: as §2

- IC50, displacement of 3[H]-fMLF binding (FPR [2]): 2.5 µg/mL
- Kd of 125I-CaG binding (FPR [5]): approximately 2 μg/ml
Substance: CaG: Cathepsin G, serine protease purified from neutrophil granules, purchased from Athens Research & Technology
- time to activation of Akt (Akt): 1 to 5 min
- time to activation of ERK1/2 (ERK1/2 [1]; ETFR cells): 1 to 5 min
- delay to reach maximal activity (MAPK phosphorylation) as compared with fMLF (ERK1/2 [1]; FPR transfected cells): 10 to 15 min
- phosphorylation of ERK1/2 in parental RBL cells (ERK1/2 [3]): did not show any increased phosphorylation of ERK1/2
- Ca2+ flux (FPR [4]): weak inducer of Ca^2+ flux; also recorded: induced a measurable level of Ca flux
- attenuation of Ca2+ response to fMLF (FPR [4]; 0.1 nM fMLF): attenuated cell response induced by low concentrations of fMLF; also recorded: significantly attenuated cell response to 0.1 nM fMLF
- migration of parental RBL cells (parental RBL cells): Neither CaG nor fMLF induced migration of parental RBL cells
- time to activation of p38 MAPK (p38 MAPK): 1 to 5 min
- Ca2+ flux (monocytes; CaG 10 μg/ml): failed to induce significant Ca^2+ flux
- attenuation of Ca2+ response to fMLF (monocytes; CaG 10 μg/ml, 0.1 nM fMLF): attenuated cell response induced by low concentrations of fMLF; also recorded: significantly attenuated cell response to 0.1 nM fMLF
- Ca2+ mobilizing activity (monocytes; concentrations up to 20 μg/ml (800 nM)): lacked significant Ca^2+ mobilizing activity
